From US20090053721A1, “VOLTAGE-GATED ION CHANNEL MUTANTS FOR USE IN IDENTIFYING ION CHANNEL MODULATING COMPOUNDS” (CARDIOME PHARMA CORP., priority 2007, published 2009)
“And” between values parts separate entries of the source, which are not always exact repeats. Identical values can stand only once. Counter-ions that a name gives are not always drawn.

Key:
Format in all cases: cell-based
[1] = molecular target: T1, Kv1.5 WT channel (Homo sapiens, UniProt P22460); assay: Whole-cell patch-clamp block of wild-type Kv1.5 current in HEK293 cells
T1 construct: subcloned as a fragment back into full-length Kv1.5; expressed in transfected cells
T1 sequence (P22460 whole entry, the tested form may be a part): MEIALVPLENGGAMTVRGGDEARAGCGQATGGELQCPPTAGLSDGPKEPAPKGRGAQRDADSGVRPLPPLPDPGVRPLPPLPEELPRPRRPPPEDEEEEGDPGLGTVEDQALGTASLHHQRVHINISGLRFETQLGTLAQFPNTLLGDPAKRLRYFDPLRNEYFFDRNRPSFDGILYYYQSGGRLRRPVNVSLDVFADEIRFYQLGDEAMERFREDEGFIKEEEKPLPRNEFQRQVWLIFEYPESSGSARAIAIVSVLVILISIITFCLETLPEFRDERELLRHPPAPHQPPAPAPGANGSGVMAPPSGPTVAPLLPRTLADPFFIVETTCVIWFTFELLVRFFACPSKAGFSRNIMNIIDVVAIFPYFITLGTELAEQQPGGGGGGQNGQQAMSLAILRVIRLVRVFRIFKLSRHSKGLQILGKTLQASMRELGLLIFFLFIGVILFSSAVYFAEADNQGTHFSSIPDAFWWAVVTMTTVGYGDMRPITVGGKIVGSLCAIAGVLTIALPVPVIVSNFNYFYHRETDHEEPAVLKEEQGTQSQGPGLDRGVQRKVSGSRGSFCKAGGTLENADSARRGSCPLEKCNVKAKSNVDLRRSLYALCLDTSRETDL
Source text: Stable lines of HEK293 cells expressing Kv1.5, or transient transfection of mutant Kv1.5 channels were used in all experiments. Primers to generate mutant channels were synthesized by Integrated DNA Technologies, Inc. (Coralville, Iowa, USA), and mutants were generated using the Stratagene Quikchange kit (Stratagene, Calif., USA). The presence of the mutation was confirmed by DNA sequencing, and because of the size of the WT Kv1.5 clone, only the sequenced region harboring the targeted nucleotides was subcloned as a fragment back into full-length Kv1.5. Transient transfections were performed with HEK 293 cells plated at 20-30% confluency on sterile coverslips in 25 mm Petri dishes one day prior to transfection. 0.1-4 μg of ion channel DNA was incubated with 1 μg of eGFP DNA (to enable detection of transfected cells) and 2 μl of lipofectamine 2000 (Invitrogen) in 100 μl of Opti-MEM. This was added to the cells for overnight incubation after washing the media with 900 μl of MEM with 10% FBS.
The cells were grown in Minimal Essential Medium (MEM) at 37° C. in an air/5% CO2 incubator. Media contained 10% bovine serum and 0.5 mg/ml geneticin for stable lines. On the day before recording, stably-expressing cells were washed with MEM, treated with trypsin/EGTA for one minute and plated on 25 mm^2 coverslips. All cell culture supplies were obtained from Invitrogen (Mississauga, ON, Canada).
Control bath solution contained (in mM): 5 KCl, 135 NaCl, 2.8 sodium acetate, 1 MgCl2, 10 HEPES and 1 CaCl2, adjusted to pH 7.4 with NaOH. Patch pipettes contained (in mM): 130 KCl, 5 EGTA, 1 MgCl2, 10 HEPES, 4 Na2ATP, and 0.1 GTP, adjusted to pH 7.2 with KOH. All chemicals used to make solutions were obtained from Sigma-Aldrich (Mississauga, ON, Canada). […] Flecamide (Sigma-Aldrich, lot number 094K4057) was prepared as a stock solution (100 mM) in 100% DMSO. DMSO concentrations for either drug never exceeded 0.1% v/v in the final experimental solutions.
Coverslips with adherent cells plated on the surface were placed in a superfusion chamber (volume 300 μl) containing the control bath solution at 22° C. Whole-cell current recording and analysis were carried out using an Axopatch 200B amplifier and pClamp10 software (Axon Instruments, CA, USA). Patch electrodes were pulled from thin-walled borosilicate glass (World Precision Instruments, FL, USA) on a horizontal micropipette puller (Sutter Instruments, CA, USA). […] Analogue capacity compensation and 80% series resistance compensation were used during whole cell measurements. […] To assess drug block, half-log escalating concentrations of drug were added to the flowing bath solution and current traces were recorded with 400 ms depolarizing pulses to +60 mV at a frequency of 0.1 Hz. […]

[2] = molecular target: T2, Kv1.5 I502A mutant channel (Homo sapiens, UniProt P22460, I502A); assay: Voltage-dependence of block (Woodhull fit), I502A Kv1.5; settings: for blocking site, electrical distance across the membrane: Woodhull fit; for calculated binding site within the electric field (fractional electrical distance δ): from the inside of the pore
T2 construct: subcloned as a fragment back into full-length Kv1.5; expressed in transfected cells; host or cells: HEK293, transient transfection
T2 sequence (P22460 whole entry I502A, the tested form may be a part): as the sequence (P22460 whole entry, the tested form may be a part) above, with I502A counted along it
Description: (§1) Coverslips with adherent cells plated on the surface were placed in a superfusion chamber (volume 300 μl) containing the control bath solution at 22° C. Whole-cell current recording and analysis were carried out using an Axopatch 200B amplifier and pClamp10 software (Axon Instruments, CA, USA). Patch electrodes were pulled from thin-walled borosilicate glass (World Precision Instruments, FL, USA) on a horizontal micropipette puller (Sutter Instruments, CA, USA). […] Analogue capacity compensation and 80% series resistance compensation were used during whole cell measurements. Membrane potentials were not corrected for junction potentials that arise between the pipette and bath solution. For Kv1.5 current recordings, a holding potential of −80 mV was used. Data were sampled at 10-20 kHz and filtered at 5 to 10 kHz. To assess drug block, half-log escalating concentrations of drug were added to the flowing bath solution and current traces were recorded with 400 ms depolarizing pulses to +60 mV at a frequency of 0.1 Hz.
(§2) f=[D]/([D]+Kd*e^−δzFE/RT)
(§3) where F, R, z and T have their usual meanings, δ represents the fractional electrical distance, i.e., the fraction of the transmembrane electrical field sensed by a single charge at the receptor site. Kd* represents the binding affinity at the reference voltage (0 mV). The current amplitude (Idrug and Icontrol) was measured at the end of a 400 ms depolarization.
The amount of block was measured at the end of the pulse at the time indicated by the arrow on each set of data records, and, after normalization to the control, current density was plotted as a function of the depolarization potential (FIGS. 7B, 8B). Data were then fit to a standard model of drug block to obtain the electrical distance of the blocking site into the electric field from the inside of the channel (Woodhull, 1973).

[3] = molecular target: T3, Kv1.5 V505A mutant channel (Homo sapiens, UniProt P22460, V505A); assay: Voltage-dependence of block (Woodhull fit), V505A Kv1.5
T3 construct: subcloned as a fragment back into full-length Kv1.5; expressed in transfected cells; host or cells: HEK293, transient transfection
T3 sequence (P22460 whole entry V505A, the tested form may be a part): as the sequence (P22460 whole entry, the tested form may be a part) above, with V505A counted along it
Description: as §1, §2
as §3, with “Kd* represents the binding affinity at the reference voltage (0 mV).” left out, “depolarization. […]” for “depolarization.”

## COc1ccc(CCO[C@@H]2CCCC[C@H]2N2CC[C@@H](O)C2)cc1OC [Vernakalant, 3-Pyrrolidinol, 1-[(1R,2R)-2-[2-(3,4-dimethoxyphenyl)ethoxy]cyclohexyl]-,hydrochloride, (3R)]
[1]
  Hill coefficient: 1.00
[1]; 10 μM vernakalant
  reduction of outward current: approximately 50%
[1]; 10 μM vernakalant, −80 to +60 mV, 400 ms, 0.1 Hz
  Fractional Block ± SEM: 0.45 ± 0.03
[2]
  blocking site, electrical distance across the membrane: ~40%
  calculated binding site within the electric field (fractional electrical distance δ): 0.39

## O=C(NCC1CCCCN1)c1cc(OCC(F)(F)F)ccc1OCC(F)(F)F (stereo not drawn) [Flecainide]
[1]; steady-state current, +60 mV
  IC50: 38.1 µM and 38 µM
[2]
  blocking site, electrical distance across the membrane: 32%
  calculated binding site within the electric field (fractional electrical distance δ): 0.32
[3]
  change in electrical distance versus WT: significant increase in distance
